From PMC11267282, “Ultrashort‐Peptide‐Responsive Gene Switches for Regulation of Therapeutic Protein Expression in Mammalian Cells” (Advanced Science, 2024)
“Also recorded” adds a separate entry of the source. Each block holds one compound with its values, some of them ahead of it. Where a SMILES comes first, the peptide text is derived from it.

Key:
[1] = tested on: ComREXTRA in HEK-XIP cells; assay: SEAP expression by monoclonal cell line HEK-XIP / monoclonal clones; format: cell-based, Streptococcus vestibularis; details: 24 h; for SEAP level vs non-induced (significance): peptides from human sequence BLAST (Supplementary Figure 14c,d), n = 4; for SEAP induction in HEK-XIP cells (result in words): specificity / orthogonality screening, vs non-induced control
Procedure: HEK‐293T or hMSC‐TERT cells were seeded in a 24‐well plate at a density of 5× 10^4 cells per well for 24 h. Then the cells were co‐transfected with 1000 ng of plasmid mixture containing pJH1611 (ITR‐OSTAT3‐SEAP‐P2A‐mINS‐pA:PRPBSA‐ECFP‐P2A‐PuroR‐pA‐ITR), pJH1618 (ITR‐PhCMV‐STAT3‐pA:PRPBSA‐ECFP‐P2A‐PuroR‐pA‐ITR), pJH1632 (ITR‐PSV40‐SP‐ComRK155R/F158Y/R186S/S222N/C17S‐EpoR‐IL‐6RB‐pA: PhCMV‐ZeoR‐P2A‐mRuby‐pA‐ITR) and the Sleeping Beauty transposase pJH42 (PhCMV‐SB100X‐pA)^[ [6], [44] ^] at the molar ratio of 2:10:50:6. After 24 h of transfection, the cells were transferred into the medium containing 0.5 µg ml^−1 puromycin, 5 µg ml^−1 blasticidin, and 100 µg ml^−1 of zeocin for antibiotic selection for three days. Then the polyclonal population of engineered cells was suspended in DMEM medium and separated by fluorescence‐activated cell sorting (FACS, BD FACS ARIA FUSION, BD Biosciences) using yPET (517/530), mRuby (558/605), and iRFP (690/713) fluorescence. The triple‐positive population was isolated into single cells and further cultured in 96‐well plates in medium containing the three selection antibiotics. After two weeks of clonal expansion, monoclonal cell lines were screened by the addition of XIP and the best‐in‐class cell line was selected for follow‐up experiments. Fluorescence‐based flow cytometry was performed to confirm triple‐positive fluorescence for the best‐in‐class cell line.
SEAP reporter levels in cell culture supernatants were quantified using a colorimetric assay. In brief, 20 µl of cell culture supernatant was mixed with 80 µl of PBS buffer (cat. no. 14190144, ThermoFisher) and heat‐inactivated at 65 °C for 30 min. Then 80 µl of 2x SEAP assay buffer (20 mM homoarginine, 1 mM MgCl2, 21% diethanolamine, pH 9.8) was mixed with 20 µl of substrate solution, and 100 µl of the buffer‐substrate mixture was added to 100 µl of the diluted heat‐inactivated sample. Absorbance at 405 nm was recorded using a plate reader (Tecan Spark, Tecan Group Ltd., Switzerland) for 30 min at 37 °C to determine the SEAP levels.

[2] = tested on: engineered mammalian cells; assay: Resazurin-based cell viability assay; details: 50 and 250 µmol/L, 24 h, n = 4
Procedure: Cells were incubated with resazurin (cat. no. R7017, Sigma‐Aldrich, USA) at a concentration of 50 µg ml^−1 for 2 h. Then fluorescence was assayed with a plate reader (Tecan Spark, Tecan Group Ltd., Switzerland) at excitation and emission wavelengths of 540 and 590 nm, respectively. The fluorescence intensity of non‐induced cells was set to 100%.

[3] = tested on: ComREXTRA (ComR-EpoR TM-IL-6RB); assay: SEAP reporter assay, ComREXTRA-based synthetic receptor, transiently transfected HEK-293T; format: cell-based, Streptococcus vestibularis; details: IL-6 50 ng/mL or XIP 50 μmol/L
Procedure: Human embryonic kidney cells (HEK‐293T, ATCC: CRL‐11268), human telomerase‐immortalized mesenchymal stem cells (hMSC‐TERT),^[ [56] ^] human fibrosarcoma cells (HT‐1080, ATCC: CCL‐121), human cervical adenocarcinoma cells (HeLa, ATCC: CCL‐2), Chinese hamster ovary cells (CHO‐K1, ATCC: CCL‐61), baby hamster kidney cells (BHK‐21, ATCC: CCL‐10), and human liver cancer cells (Hep G2, ATCC: CRL‐11997) were cultured in Dulbecco's modified Eagle's medium (DMEM, cat. no. 52100–39, Thermo Fisher Scientific) containing 10% fetal bovine serum (FBS, cat. no. F7524, lot no. 022M3395, Sigma‐Aldrich) and 1% (v/v) streptomycin/penicillin (cat. no. L0022, Biowest). All mammalian cells were grown at 37 °C in a humidified atmosphere containing 5% CO2. For all transient transfections, 15 000 cells were seeded per well of a 96‐well plate (cat. no. 3599, Corning Inc. Life Sciences) overnight. Cells were transfected by mixing 100 ng of DNA and polyethyleneimine (PEI, 24765‐2, Polysciences) in a ratio of 1:4. […] The cell density was calculated using a cell counter (CellDrop BF Brightfield Cell Counter, DeNovix Inc.)
SEAP reporter levels in cell culture supernatants were quantified using a colorimetric assay. […] Absorbance at 405 nm was recorded using a plate reader (Tecan Spark, Tecan Group Ltd., Switzerland) for 30 min at 37 °C to determine the SEAP levels.

[4] = tested on: CD4 / CD8 T cells of immunized mice; assay: T-cell response, intracellular cytokine staining; format: in vivo, mouse; details: FACS intracellular cytokine staining, spleen and draining lymph nodes, n = 3
Procedure: Mice were immunized at 2‐week intervals.
Isolated lymphocytes from spleens and lymph nodes were placed in a U‐bottom 96‐well plate and resuspended in 100 µl complete RPMI‐1640 medium, which contains FBS (10% v/v), HEPES (pH 7.2∼7.5, 1% v/v, Gibco), penicillin/streptomycin (1% v/v, Gibco), sodium pyruvate (1% v/v, Gibco) and 2‐mercaptoethanol (0.1% v/v, Gibco). Cells were stimulated with 1 µM cognate peptides or with Cell Stimulation Cocktail (a cocktail of phorbol 12‐myristate 13‐acetate (PMA) and ionomycin, Invitrogen) as positive controls at 37 °C for 4 h, in the presence of 10 µM brefeldin A (MedChemExpress) to inhibit cytokine secretion. Next, the cells were washed with 150 µl FACS buffer, and centrifuged with 1,500 g for 2 min. The supernatant was discarded and the cells were blocked with anti‐CD16/32 antibody (1:100, 93, 101302, BioLegend) in 20 µl/well FACS buffer at 4 °C for 15 min. Then 20 µl/well antibody cocktail containing anti‐CD3ε (1:500, 17A2, 100306, BioLegend), anti‐CD4 (1:500, RM4‐5, 100526, BioLegend), anti‐CD8β (1:500, YTS256.7.7, 126606, BioLegend), and anti‐CD45 (1:500, S18009F, 157211, BioLegend) was added to the cell mixture for 20 min incubation at 4 °C. […] Gate margins were determined on the basis of isotype controls and fluorescence‐minus‐one controls.

C57BL/6 mice = assay: Antibody analysis for peptide immunogenicity; details: s.c., three doses of 5 mg kg−1 at two-week intervals, with Freund's adjuvant, OD450, n = 3
Procedure: Eight‐week‐old wild‐type male mice were immunized for peptide immunogenicity assessments. Briefly, peptide solution was premixed 1:1 with Freund's adjuvant in a total volume of 400 µl by thorough vigorous shaking. Then peptide/adjuvant mixes were injected subcutaneously in 30 min at a dose of 5 mg kg^−1. Mice were immunized at 2‐week intervals. Negative controls (mock‐immunized) were also included in the study. One week after the third dose of immunization, blood was sampled for antibody analysis.
For antibody analysis, the peptides were coated on the EIA/RIA plate (cat. no. 3590, Corning Inc. Life Sciences) in carbonate coating buffer (cat. no. CB01100, ThermoFisher) at 4 °C overnight. The next day the plate was blocked with 20% nonfat milk (cat. no. A0830,1000, AppliChem Panreac) for 24 h at 4 °C, and incubated with antibodies at the indicated dilution or at 37 °C for 1 h. Next, horseradish peroxidase‐linked anti‐mouse IgG (cat. no. LNA931V, GE Healthcare, USA) was added to the plate at a dilution of 1:1000 for 1 h at 37 °C. Between each step, the plate was washed with PBS at least three times. Then, 100 µl ultra TMB substrate solution (cat. no. 34028, ThermoFisher) was added to the plate at room temperature for 15 min, followed by the addition of 50 µl of stop solution (2 M H2SO4). The OD450 was measured by a plate reader (Tecan Spark, Tecan Group Ltd., Switzerland). Mouse anti‐HA antibody (cat. no. 901523, BioLegend, USA, 1:1000 dilution) was used as a positive control.

[5] = tested on: T1D mice with HEK-XIP implants; assay: Serum inflammatory cytokines (ELISA); format: in vivo, mouse; details: four weeks after implantation, n = 5
Procedure: The concentrations of interferon gamma (IFN‐γ), interleukin‐6 (IL‐6), and tumor necrosis factor alpha (TNF‐α) in mouse serum were assessed by the use of specific enzyme‐linked immunosorbent assay (ELISA) kits. IFN‐γ levels were analyzed using the IFN gamma mouse ELISA kit (cat. no. ab282874, Abcam), IL‐6 levels were determined with the IL‐6 mouse ELISA kit (cat. no. ab100712, Abcam), and TNF‐α levels were quantified utilizing the TNF alpha mouse ELISA kit (cat. no. BMS607HS, ThermoFisher). Freund's Complete Adjuvant (cat. no.: 344289, Sigma‐Aldrich) and lipopolysaccharides (cat. no.: L2630‐10MG, Sigma‐Aldrich) were utilized to induce cytokine production as positive controls. Blood samples were collected from mice treated with adjuvant and LPS 24 hours post‐treatment. The quantification of cytokines from these groups was conducted using the same ELISA kit.

Compound: VPYFYYY [Align15_VPYFYYY, short peptide based on conserved human motif]
SEAP level vs non-induced (significance) [1]: ns

Compound: C peptide [reference compound]
SEAP induction in HEK-XIP cells (result in words) [1]: none of them displayed inducing activity

Compound: RAPKFMIY [Align14_RAPKFMIY, short peptide based on conserved human motif]
SEAP level vs non-induced (significance) [1]: ns

Compound: RPFFYY [Align10-12_RPFFYY, short peptide based on conserved human motif]
SEAP level vs non-induced (significance) [1]: ns

Compound: VPFFMIIC [Align1-9_VPFFMIIC, short peptide based on conserved human motif]
SEAP level vs non-induced (significance) [1]: ns

Compound: CC[C@H](C)[C@H](NC(=O)[C@H](CCSC)NC(=O)[C@H](Cc1ccccc1)NC(=O)[C@H](Cc1ccc(O)cc1)NC(=O)[C@@H]1CCCN1C(=O)[C@@H](N)C(C)C)C(=O)N[C@@H](Cc1ccc(O)cc1)C(=O)N[C@@H](Cc1ccc(O)cc1)C(=O)O [RE10] (H-VPYFMIYY-OH)
HEK-XIP cell viability [2]: ns

Compound: CSCC[C@H](NC(=O)[C@H](Cc1ccccc1)NC(=O)[C@H](Cc1ccc(O)cc1)NC(=O)[C@@H]1CCCN1C(=O)[C@H](C)N)C(=O)NCC(=O)N[C@@H](Cc1ccc(O)cc1)C(=O)N[C@@H](Cc1ccc(O)cc1)C(=O)O [RE12] (H-APYFMGYY-OH)
HEK-XIP cell viability [2]: ns

Compound: VPYFYY [Align16_VPYFYY, short peptide based on conserved human motif]
SEAP level vs non-induced (significance) [1]: ns

Compound: interleukin 6 [IL-6]
SEAP induction of XIPEXTRA system ([3]; n = 4): ns | SEAP induction of XIPEXTRA system ([3]; n = 4, listed as IL‐6): no apparent induction; also recorded: no detectable activation

Antibody response (C57BL/6 mice): no detectable antibodies’ response | Antibody response (C57BL/6 mice; listed as XIP_ID3): ns | Serum IFN-γ (significance) ([5]; vs non-induced): ns | Serum TNF-α (significance) ([5]; vs non-induced): ns | Serum IL-6 ([5]; undetectable): Below 0.82 pg/ml
Compound: CC(C)[C@H](N)C(=O)N1CCC[C@H]1C(=O)N[C@@H](Cc1ccccc1)C(=O)N[C@@H](Cc1ccccc1)C(=O)N[C@@H](Cc1ccc(O)cc1)C(=O)N[C@@H](Cc1ccc(O)cc1)C(=O)O [ID3] (H-VPFFYY-OH)
Peptide-specific T-cell response [4]: no peptide‐specific T‐cell response was detected | HEK-XIP cell viability [2]: ns

Compound: VPFYYY [Align8-9/17_VPFYYY, short peptide based on conserved human motif]
SEAP level vs non-induced (significance) [1]: ns

Compound: VPFFYYYY [Align1-2_VPFFYYYY, short peptide based on conserved human motif]
SEAP level vs non-induced (significance) [1]: ns

Compound: VPFYYYY [Align5-7_VPFYYYY, short peptide based on conserved human motif]
SEAP level vs non-induced (significance) [1]: ns

Compound: APFFYY [Align19_APFFYY, short peptide based on conserved human motif]
SEAP level vs non-induced (significance) [1]: ns

Compound: VPFFMYY [ID1]
SEAP induction in HEK-XIP cells (result in words) [1]: significant fold inductions

Compound: BAM8‐22 [reference compound]
SEAP induction in HEK-XIP cells (result in words) [1]: none of them displayed inducing activity

Compound: LPFFMIL [Align10-13_LPFFMIL, short peptide based on conserved human motif]
SEAP level vs non-induced (significance) [1]: ns

Compound: DPFFYY [Align18_DPFFYY, short peptide based on conserved human motif]
SEAP level vs non-induced (significance) [1]: ns

Compound: RPFFYYYY [Align3-4_RPFFYYYY, short peptide based on conserved human motif]
SEAP level vs non-induced (significance) [1]: ns

Compound: APYFMIYY [RE11]
HEK-XIP cell viability [2]: ns

Compound: RPFHFMIY [Align15-20_RPFHFMIY, short peptide based on conserved human motif]
SEAP level vs non-induced (significance) [1]: ns

Compound: PPFFYY [Align14/20_PPFFYY, short peptide based on conserved human motif]
SEAP level vs non-induced (significance) [1]: ns
